Reference: US7745481B2, “Methods and compositions for the treatment and prevention of tumors, tumor-related disorders and cachexia” (Daiichi Sankyo Company, Limited, priority 1997, dated 2010)

How the values were obtained:
Assay type in all cases: in vivo
[1] = system: mouse colon cancer Colon 26 cells; assay: Test of anticachexia effects in mice bearing mouse colon cancer Colon 26 cells; details: for Inhibition of mouse tumor cachexia and recovery of body weight loss (in words): Example 4, written in present tense, no data; for Body Weight Recovery Rate (%): day 19, (Δgt−Δgc1)/(Δgc2−Δgc1)×100; for Weight Gain (Δg): day 19 after tumor cell transplantation, female CDF1 mice 8 weeks old; for Average Weight Gain (Δg): 22 days after tumor transplantation, female CDF1 mice 16 weeks old, control −4.2
Excerpt: The test animals were CDF1 mice (females, 8 weeks old). They were employed in groups of 10 for each test. 1×10^6 mouse colon cancer Colon 26 cells were transplanted subcutaneously into each animal.
The test compounds were Compounds No. 1-94 and 2-78 as shown above in Tables 1 and 2, respectively, and having the following formulae: […]
Each test compound was suspended in sterilized distilled water containing 0.5% w/v carboxymethyl cellulose (CMC) and administered orally once per day starting on the day of the tumor cell transplantation.
Each test animal was weighed immediately after tumor cell transplantation, and the weight (A g) was recorded. Each animal was then weighed on day 19 after tumor cell transplantation, and the weight (B g) was recorded. The weight gain on day 19 after tumor cell transplantation was calculated as B−A=Δgt for the test animals. The experiment was repeated with two control groups: the first control group (control group 1) was transplanted with the tumor cells but were not treated with any test compound, and the weight gain is reported as Δgc1; the second control group (control group 2) were not transplanted with the tumor cells and were not treated with any test compound, and the weight gain is reported as Δgc2. The body weight recovery rate was determined according to the following formula based on the weight gain on day 19 after tumor cell transplantation, and this value was used as an indicator of the anticachexia effect. Body weight recovery rate (%)=(Δgt−Δgc1)/(Δgc2−Δgc1)×100
(§1) The procedure described in Example 1 was repeated, but using the compound of formula (III) as the test compound, and comparing the weight gain (Δgt) of the test group of animals to which the compound of formula (III) had been administered with a control group (Δgc) into which the tumor cells had been transplanted but to which no anti-tumor compound had been administered. The test animals were female CDF1 mice, 16 weeks old. Also, the weight gain was measured 22 days after tumor transplantation. The average body weight of each group of animals immediately after tumor transplantation was 25 to 26 g.
as §1, with “Example 2” for “Example 1”, “formula (IV)” for “formula (III)”, “mice, 7” for “mice, 16”, “measured 15” for “measured 22”, “was 20” for “was 25”, “to 21” for “to 26”
Test compounds [the compounds of formula (V), (VI), (VII), (VIII), (IX), (X), (XI), (XII), (XIII) and (XIV)] are administered in the same manner as described in Example 2.

[2] = system: mouse colon cancer Colon 26 cells; assay: Life-prolonging activity test in mice bearing Colon 26 cells; details: for Life-prolongation (in words): Example 7, animals of Examples 3 and 4, present tense, no data; for Life-prolonging Index (%): (St/Sc−1)×100
Method: Observation of the mice used in Example 1 above was continued. The life-prolonging index was determined, based on the number of days each mouse survived, and this value was then used as an indicator of the life-prolonging effects of the test compounds.
It should be noted that, in the case of the group of mice treated with a test compound, oral administration of the respective compound once daily was continued on day 20 after tumor cell transplantation and beyond as well. Life-prolonging index (%)=(St/Sc−1)×100 • St: Median value of survival time (days) of the group of mice treated with a test compound • Sc: Median value of survival time (days) of the control group which were […].
The experiment reported in Example 5 was repeated with the animals used in Example 2. In the case of the group of mice treated with a test compound, oral administration of the respective compound once daily was continued on day 23 after tumor cell transplantation and beyond as well.
The experiment reported in Example 5 is repeated with the animals used in Examples 3 and 4.

[3] = system: mouse malignant melanoma B16-BL6 cells; assay: Inhibitory effect on lung metastasis of mouse malignant melanoma B16-BL6 cells
Method: Groups of mice, each group containing ten C57BL/6 mice (female, age: 8 weeks) were transplanted intravenously into the tail vein with 3×10^4 of mouse malignant melanoma B16-BL6 cells.
The mice were, when necessary, administered intravenously into the tail vein with a bacterial lipopolysaccharide (LPS) in an amount of 3 μg each within one hour before transplantation of the melanoma cells so as to accelerate lung metastasis of the melanoma [M. J. Anasagasti et al., J. Natl. Cancer Research, 89, 645-651 (1997).]
As test compounds, Compound No. 2-118, a compound of formula (IV), a compound of formula (V) and indomethacin were employed, and each was suspended in sterilized distilled water containing 0.5% w/v of carboxymethyl cellulose (CMC), and the suspensions were orally administered at a dose of 1 mg/kg per day for five days starting from the day of the melanoma cell transplantation.
Inhibitory activities on lung metastasis of the melanoma cells were evaluated in terms of the lung metastasis inhibitory rate (LMI %) by counting the number of metastatic colonies in the lung on the 10th day after intravenous transplantation of the mouse malignant melanoma B16-BL6 cells at the tail. LMI(%)=(1−Nt/Nc)×100 • Nt: Numbers of lung metastatic colonies on the 10th day in groups administered with the test compounds; and • Nc: Numbers of lung metastatic colonies on the 10th day in control groups which were not administered with the test compounds.

[4] = 1 mg/kg oral once daily, mice of Example 1
[5] = 1 mg/kg oral once daily, mice of Example 1, untreated 29.0
[6] = 3 mg/kg oral once daily, mice of Example 1
[7] = 3 mg/kg oral once daily, mice of Example 1, untreated 29.0
[8] = 10 mg/kg oral once daily, mice of Example 1
[9] = 10 mg/kg oral once daily, mice of Example 1, untreated 29.0

Cc1nc(C2CCCCC2)c(-c2ccc(S(N)(=O)=O)c(F)c2)o1 [(VIII), 4-(4-cyclohexyl-2-methyloxazol-5-yl)-2-fluorobenzenesulfonamide]
Inhibition of mouse tumor cachexia and recovery of body weight loss (in words) [1]: inhibit mouse tumor cachexia and recover loss of average of body weight
Life-prolongation (in words) [2]: exhibit pronounced life-prolongation

Cc1cnc(NC(=O)C2=C(O)c3ccccc3S(=O)(=O)N2C)s1 [(VI), 4-hydroxy-2-methyl-N-(5-methylthiazol-2-yl)-2H-1,2-benzothiazine-3-carboxamide-1,1-dioxide]
Inhibition of mouse tumor cachexia and recovery of body weight loss (in words) [1]: inhibit mouse tumor cachexia and recover loss of average of body weight
Life-prolongation (in words) [2]: exhibit pronounced life-prolongation

CCOc1ccc(-c2cc(C)cn2-c2ccc(S(N)(=O)=O)cc2)cc1 [Compound 2-78]
Body Weight Recovery Rate (%) ([1]; 1 mg/kg oral once per day): 85%
Weight Gain (Δg) ([1]; 1 mg/kg oral once per day): 2.5 g
Body Weight Recovery Rate (%) ([1]; 3 mg/kg oral once per day): 85%
Weight Gain (Δg) ([1]; 3 mg/kg oral once per day): 2.5 g
Body Weight Recovery Rate (%) ([1]; 10 mg/kg oral once per day): 88%
Weight Gain (Δg) ([1]; 10 mg/kg oral once per day): 2.6 g
Life-prolonging Index (%) [2, 4]: 55%
Survival Period (median: days) [2, 5]: 45.0 days
Life-prolonging Index (%) [2, 6]: 74%
Survival Period (median: days) [2, 7]: 50.5 days
Life-prolonging Index (%) [2, 8]: 67%
Survival Period (median: days) [2, 9]: 48.5 days

CCN1CC/C(=C\c2cc(C(C)(C)C)c(O)c(C(C)(C)C)c2)S1(=O)=O [(X), (E)-2-ethyl-5-(3,5-di-t-butyl-4-hydroxy)benzylidene-1,2-isothiazolidine-1,1-dioxide]
Inhibition of mouse tumor cachexia and recovery of body weight loss (in words) [1]: inhibit mouse tumor cachexia and recover loss of average of body weight
Life-prolongation (in words) [2]: exhibit pronounced life-prolongation

CSc1ccc(-n2cc(C)cc2-c2ccc(S(N)(=O)=O)cc2)cc1 [Compound 1-94, 4-methyl-1-(4-methylthiophenyl)-2-(4-sulfamoylphenyl)pyrrole]
Body Weight Recovery Rate (%) ([1]; 1 mg/kg oral once per day): 78%
Weight Gain (Δg) ([1]; 1 mg/kg oral once per day): 2.2 g
Body Weight Recovery Rate (%) ([1]; 3 mg/kg oral once per day): 89%
Weight Gain (Δg) ([1]; 3 mg/kg oral once per day): 2.7 g
Body Weight Recovery Rate (%) ([1]; 10 mg/kg oral once per day): 98%
Weight Gain (Δg) ([1]; 10 mg/kg oral once per day): 3.1 g
Life-prolonging Index (%) [2, 4]: 67%
Survival Period (median: days) [2, 5]: 48.5 days
Life-prolonging Index (%) [2, 6]: 21%
Survival Period (median: days) [2, 7]: 35.0 days
Life-prolonging Index (%) [2, 8]: 55%
Survival Period (median: days) [2, 9]: 45.0 days

CS(=O)(=O)Nc1cc2occ(NC=O)c(=O)c2cc1Oc1ccccc1 [(IX), N-(3-formylamino-4-oxo-6-phenoxy-4H-1-benzopyran-7-yl)methanesulfonamide]
Inhibition of mouse tumor cachexia and recovery of body weight loss (in words) [1]: inhibit mouse tumor cachexia and recover loss of average of body weight
Life-prolongation (in words) [2]: exhibit pronounced life-prolongation

CS(=O)(=O)Nc1ccc([N+](=O)[O-])cc1Oc1ccccc1 [(VII), N-(4-Nitro-2-phenoxyphenyl)methanesulfonamide]
Inhibition of mouse tumor cachexia and recovery of body weight loss (in words) [1]: inhibit mouse tumor cachexia and recover loss of average of body weight
Life-prolongation (in words) [2]: exhibit pronounced life-prolongation

CS(=O)(=O)c1ccc(C2=C(c3ccccc3)C(=O)OC2)cc1 [(XII), 3-phenyl-4-(4-methanesulfonylphenyl)-5H-furan-2-one]
Inhibition of mouse tumor cachexia and recovery of body weight loss (in words) [1]: inhibit mouse tumor cachexia and recover loss of average of body weight
Life-prolongation (in words) [2]: exhibit pronounced life-prolongation

CS(=O)(=O)c1ccc(C2=C(c3cc(F)cc(F)c3)C(=O)CC2)cc1 [(XIII), 2-(3,5-difluorophenyl)-3-(4-methanesulfonylphenyl)-2-cyclopenten-1-one]
Inhibition of mouse tumor cachexia and recovery of body weight loss (in words) [1]: inhibit mouse tumor cachexia and recover loss of average of body weight
Life-prolongation (in words) [2]: exhibit pronounced life-prolongation

CS(=O)(=O)c1ccc(C2=C(c3ccc(F)c(F)c3)C(=O)OC2)cc1 [Compound (III), 3-(3,4-difluorophenyl)-4-(4-methanesulfonylphenyl)-5H-furan-2-one]
Average Weight Gain (Δg) ([1]; 1 mg/kg oral once per day): 0.0 g
Average Weight Gain (Δg) ([1]; 3 mg/kg oral once per day): 0.3 g
Average Weight Gain (Δg) ([1]; 10 mg/kg oral once per day): 0.9 g
Inhibition of mouse tumor cachexia and weight loss (in words) ([1]; Examples 1-3, 1-10 mg/kg oral): inhibited mouse tumor cachexia and reduced weight loss
Survival Period (median: days) ([2]; 1 mg/kg oral once daily, mice of Example 2 (16 weeks old), untreated 23.0): 40.5 days
Life-prolonging Index (%) ([2]; 1 mg/kg oral once daily, mice of Example 2): 76%
Survival Period (median: days) ([2]; 3 mg/kg oral once daily, mice of Example 2 (16 weeks old), untreated 23.0): 37.5 days
Life-prolonging Index (%) ([2]; 3 mg/kg oral once daily, mice of Example 2): 63%
Survival Period (median: days) ([2]; 10 mg/kg oral once daily, mice of Example 2 (16 weeks old), untreated 23.0): 43.5 days
Life-prolonging Index (%) ([2]; 10 mg/kg oral once daily, mice of Example 2): 91%

Cc1onc(-c2ccccc2)c1-c1ccc(S(N)(=O)=O)cc1 [(XIV), 4-[5-methyl-3-phenylisoxazol-4-yl)benzenesulfonamide]
Inhibition of mouse tumor cachexia and recovery of body weight loss (in words) [1]: inhibit mouse tumor cachexia and recover loss of average of body weight
Life-prolongation (in words) [2]: exhibit pronounced life-prolongation

CS(=O)(=O)c1ccc(C2=C(c3ccc(F)cc3)CCC2)cc1 [(XI), 1-(4-methanesulfonylphenyl)-2-(4-fluorophenyl)cyclopentene]
Inhibition of mouse tumor cachexia and recovery of body weight loss (in words) [1]: inhibit mouse tumor cachexia and recover loss of average of body weight
Life-prolongation (in words) [2]: exhibit pronounced life-prolongation

COc1ccc2c(c1)c(CC(=O)O)c(C)n2C(=O)c1ccc(Cl)cc1 [Indomethacin, reference compound]
Inhibition of lung metastasis (in words) ([3]; 1 mg/kg oral, lung metastasis accelerating conditions (LPS)): had no such inhibitory activity
LMI (%) lung metastasis inhibitory rate ([3]; LPS 3 μg i.v. before transplantation, 1 mg/kg per day oral for five days, colonies counted on 10th day, C57BL/6 mice): −1%
